From US10717733B2, “Haloallylamine indole and azaindole derivative inhibitors of lysyl oxidases and uses thereof” (PHARMAXIS LTD., priority 2016, dated 2020)
Counter-ions that a name gives are not always drawn.

Columns and labels:
Format in all cases: biochemical
[1] = biological target: Bovine LOX (Bos taurus (Bovine), UniProt P33072); experiment: LOX inhibition, peroxidase-coupled Amplex Red amine oxidase assay; settings: 30 min preincubation at 37° C., putrescine substrate
Procedure, shortened: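 Bovine LOX in 1.2 M urea, 50 mM sodium borate pH 8.2 with 1 μM mofegiline and 0.5 mM pargyline; putrescine at twice KM (e.g. 20 mM for LOX) with Amplex Red/HRP. Fluorescence (ex 565/em 590 nm) read kinetically over 30 min at 37–45 °C; IC50 from slopes.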

[2] = biological target: Human LOXL2 (Homo sapiens (Human), UniProt Q9Y4K0); experiment: LOXL2 inhibition, peroxidase-coupled Amplex Red amine oxidase assay; settings: 30 min preincubation at 37° C., putrescine substrate
Procedure, shortened: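 Enzyme in 1.2 M urea, 50 mM sodium borate pH 8.2 with 1 μM mofegiline and 0.5 mM pargyline, preincubated 30 min at 37° C with compound (11-point CRC). Putrescine at twice KM (10 mM for LOXL2) with Amplex Red/HRP; fluorescence (ex 565, em 590) read kinetically 30 min; IC50 from slopes.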

[3] = biological target: human recombinant SSAO/VAP-1 (Homo sapiens (Human), UniProt Q16853); experiment: Inhibition of human recombinant SSAO/VAP-1 amine oxidase activity; settings: 30 min preincubation at 37° C., 600 μM benzylamine
Procedure, shortened: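 Purified SSAO/VAP-1 (residues 34-763, expressed in CHO Lec 8 cells; 0.25 μg/mL) preincubated 30 min at 37° C with compound in 0.1 M sodium phosphate pH 7.4. Reaction mix of 600 μM benzylamine, 120 μM Amplex Red and 1.5 U/mL HRP added; fluorescence (ex 565/em 590 nm) read every 2.5 min for 30 min; IC50 from kinetic slopes over 4-11 point curves.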

[4] = biological target: Recombinant human MAO-B (Homo sapiens (Human), UniProt P27338); experiment: Inhibition of human recombinant MAO-B; settings: benzylamine 100 μM
Procedure, shortened: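 Recombinant human MAO-B used as enzyme source (0.06 mg/mL, stated concentration). Run as for the human SSAO/VAP-1 assay, except benzylamine substrate at 100 μM.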

Recombinant human MAO-B, sequence (P27338 whole entry): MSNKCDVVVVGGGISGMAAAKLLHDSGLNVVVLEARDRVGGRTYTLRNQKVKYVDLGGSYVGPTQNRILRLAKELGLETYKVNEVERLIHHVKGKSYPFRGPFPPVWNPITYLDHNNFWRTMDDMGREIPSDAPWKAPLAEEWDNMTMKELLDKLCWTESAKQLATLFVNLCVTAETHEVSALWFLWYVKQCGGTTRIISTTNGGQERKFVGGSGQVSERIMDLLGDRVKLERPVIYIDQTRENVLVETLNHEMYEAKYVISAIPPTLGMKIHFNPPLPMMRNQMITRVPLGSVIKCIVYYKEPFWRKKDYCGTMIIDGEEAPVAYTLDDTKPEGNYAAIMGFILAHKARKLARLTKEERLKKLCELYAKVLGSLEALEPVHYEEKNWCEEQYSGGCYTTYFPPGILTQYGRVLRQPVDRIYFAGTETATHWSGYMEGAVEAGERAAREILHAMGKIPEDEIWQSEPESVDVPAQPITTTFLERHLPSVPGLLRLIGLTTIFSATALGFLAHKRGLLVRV
Human LOXL2, sequence (Q9Y4K0 26-774): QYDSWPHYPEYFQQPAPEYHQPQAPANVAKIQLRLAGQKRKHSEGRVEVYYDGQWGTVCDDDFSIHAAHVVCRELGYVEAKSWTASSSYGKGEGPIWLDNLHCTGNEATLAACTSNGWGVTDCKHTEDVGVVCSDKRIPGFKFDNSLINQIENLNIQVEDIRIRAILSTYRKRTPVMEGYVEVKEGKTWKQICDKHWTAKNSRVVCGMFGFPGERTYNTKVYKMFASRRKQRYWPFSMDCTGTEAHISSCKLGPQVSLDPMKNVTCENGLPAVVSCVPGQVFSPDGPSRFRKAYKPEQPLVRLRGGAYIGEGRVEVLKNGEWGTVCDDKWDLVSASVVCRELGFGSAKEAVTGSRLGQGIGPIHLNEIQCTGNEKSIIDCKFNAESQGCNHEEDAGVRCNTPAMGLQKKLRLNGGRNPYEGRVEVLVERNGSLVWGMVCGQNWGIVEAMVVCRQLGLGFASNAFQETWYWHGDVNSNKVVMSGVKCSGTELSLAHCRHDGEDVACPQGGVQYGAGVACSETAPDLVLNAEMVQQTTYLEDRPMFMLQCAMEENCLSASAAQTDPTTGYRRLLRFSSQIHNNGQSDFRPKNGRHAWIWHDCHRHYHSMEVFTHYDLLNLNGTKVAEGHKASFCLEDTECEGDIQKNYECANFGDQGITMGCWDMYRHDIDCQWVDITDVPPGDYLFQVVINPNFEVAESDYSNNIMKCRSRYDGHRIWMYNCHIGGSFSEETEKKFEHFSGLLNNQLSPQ
human recombinant SSAO/VAP-1, sequence (Q16853 34-763): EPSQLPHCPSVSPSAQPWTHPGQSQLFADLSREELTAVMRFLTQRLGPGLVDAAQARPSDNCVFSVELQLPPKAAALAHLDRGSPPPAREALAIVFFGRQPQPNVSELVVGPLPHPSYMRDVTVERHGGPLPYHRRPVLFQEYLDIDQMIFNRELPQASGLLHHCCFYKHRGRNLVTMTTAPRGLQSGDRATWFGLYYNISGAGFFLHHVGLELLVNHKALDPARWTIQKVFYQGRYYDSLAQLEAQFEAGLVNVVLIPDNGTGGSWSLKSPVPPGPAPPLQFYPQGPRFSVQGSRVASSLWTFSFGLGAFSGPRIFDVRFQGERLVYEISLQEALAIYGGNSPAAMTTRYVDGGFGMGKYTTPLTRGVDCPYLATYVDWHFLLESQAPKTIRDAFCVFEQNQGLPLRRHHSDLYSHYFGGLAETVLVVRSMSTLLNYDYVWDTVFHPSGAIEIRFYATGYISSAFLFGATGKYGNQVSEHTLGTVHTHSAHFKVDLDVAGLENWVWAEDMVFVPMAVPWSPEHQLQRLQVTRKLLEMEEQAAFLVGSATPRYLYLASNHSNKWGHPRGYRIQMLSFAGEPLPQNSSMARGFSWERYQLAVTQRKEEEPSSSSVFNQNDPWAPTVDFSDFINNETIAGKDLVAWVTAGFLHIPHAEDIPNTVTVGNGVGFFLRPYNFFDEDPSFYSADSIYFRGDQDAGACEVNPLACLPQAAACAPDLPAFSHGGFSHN
Bovine LOX, sequence (P33072 170-418): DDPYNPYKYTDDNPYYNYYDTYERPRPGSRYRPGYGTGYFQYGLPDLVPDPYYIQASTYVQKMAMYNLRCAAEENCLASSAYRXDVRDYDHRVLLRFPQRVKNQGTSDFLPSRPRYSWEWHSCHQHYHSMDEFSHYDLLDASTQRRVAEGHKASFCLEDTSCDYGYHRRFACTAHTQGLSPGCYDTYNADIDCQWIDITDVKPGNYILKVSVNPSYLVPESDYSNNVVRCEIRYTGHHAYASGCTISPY

| SMILES | IC50 [1] | IC50 [2] | IC50 [3] | IC50 [4] |
| --- | --- | --- | --- | --- |
| Cc1c(-c2ccncc2)c2cc(S(C)(=O)=O)ccc2n1C/C(F)=C/CN [Compound 88, (Z)-3-fluoro-4-(2-methyl-5-(methylsulfonyl)-3-(pyridin-4-yl)-1H-indol-1-yl)but-2-en-1-amine] | > 300 nM | < 300 nM | > 3000 nM | > 3000 nM |
| Cc1cc(-c2c(C)n(C/C(F)=C/CN)c3ccc(S(C)(=O)=O)cc23)cc(C)n1 [Compound 89, (Z)-4-(3-(2,6-dimethylpyridin-4-yl)-2-methyl-5-(methylsulfonyl)-1H-indol-1-yl)-3-fluorobut-2-en-1-amine] | > 300 nM | < 300 nM | > 3000 nM | > 3000 nM |
| Cc1cc(-c2c(C)n(C/C(F)=C/CN)c3ccc(C(=O)N(C)C)cc23)cc(C)n1 [Compound 90, (Z)-1-(4-amino-2-fluorobut-2-en-1-yl)-3-(2,6-dimethylpyridin-4-yl)-N,N,2-trimethyl-1H-indole-5-carboxamide] | > 300 nM | < 300 nM | > 3000 nM | > 3000 nM |
| Cc1c(-c2ccncc2)c2cc(C(=O)NC(C)(C)C)ccc2n1C/C(F)=C/CN [Compound 91, (Z)-1-(4-amino-2-fluorobut-2-en-1-yl)-N-(tert-butyl)-2-methyl-3-(pyridin-4-yl)-1H-indole-5-carboxamide] | > 300 nM | < 300 nM | > 3000 nM | > 3000 nM |
| Cc1c(-c2ccc3c(c2)OCO3)c2cc(S(C)(=O)=O)ccc2n1C/C(F)=C/CN [Compound 92, (Z)-4-(3-(benzo[d][1,3]dioxol-5-yl)-2-methyl-5-(methylsulfonyl)-1H-indol-1-yl)-3-fluorobut-2-en-1-amine] | > 300 nM | < 300 nM | > 3000 nM | > 3000 nM |
| Cc1c(-c2ccc(F)cc2)c2cc(S(C)(=O)=O)ccc2n1C/C(F)=C/CN [Compound 93, (Z)-3-fluoro-4-(3-(4-fluorophenyl)-2-methyl-5-(methylsulfonyl)-1H-indol-1-yl)but-2-en-1-amine] | > 300 nM | < 300 nM | > 3000 nM | > 3000 nM |
| Cc1cc(-c2c(C)n(C/C(F)=C/CN)c3ccc(S(C)(=O)=O)cc23)ccn1 [Compound 94, (Z)-3-fluoro-4-(2-methyl-3-(2-methylpyridin-4-yl)-5-(methylsulfonyl)-1H-indol-1-yl)but-2-en-l-amine, Dihydrochloride] | > 300 nM | < 300 nM | > 3000 nM | > 3000 nM |
| Cc1c(-c2ccc(F)cc2)c2cc(S(N)(=O)=O)ccc2n1C/C(F)=C/CN [Compound 95, (Z)-1-(4-amino-2-fluorobut-2-en-1-yl)-3-(4-fluorophenyl)-2-methyl-1H-indole-5-sulfonamide] | > 300 nM | < 300 nM | > 3000 nM | > 3000 nM |
| CN(C)S(=O)(=O)c1cncc(-c2c(Cl)n(C/C(F)=C/CN)c3ccccc23)c1 [Compound 96, (Z)-5-(1-(4-amino-2-fluorobut-2-en-1-yl)-2-chloro-1H-indol-3-yl)-N,N-dimethylpyridine-3-sulfonamide] | > 300 nM | < 300 nM | > 3000 nM | > 3000 nM |
| Cc1c(-c2cccc(S(=O)(=O)N(C)C)c2)c2cc(S(C)(=O)=O)ccc2n1C/C(F)=C/CN [Compound 97, (Z)-3-(1-(4-amino-2-fluorobut-2-en-1-yl)-2-methyl-5-(methylsulfonyl)-1H-indol-3-yl)-N,N-dimethylbenzenesulfonamide] | > 300 nM | < 300 nM | > 3000 nM | > 3000 nM |
| COc1cc(-c2c(C)n(C/C(F)=C/CN)c3ccc(S(C)(=O)=O)cc23)ccn1 [Compound 98, (Z)-3-fluoro-4-(3-(2-methoxypyridin-4-yl)-2-methyl-5-(methylsulfonyl)-1H-indol-1-yl)but-2-en-1-amine] | > 300 nM | < 300 nM | > 3000 nM | > 3000 nM |
| CN(C)S(=O)(=O)c1cccc(-c2c(Cl)n(C/C(F)=C/CN)c3cccnc23)c1 [Compound 99, (Z)-3-(1-(4-amino-2-fluorobut-2-en-1-yl)-2-chloro-1H-pyrrolo[3,2-b]pyridin-3-yl)-N,N-dimethylbenzenesulfonamide] | > 300 nM | < 300 nM | > 3000 nM | > 3000 nM |
| CN(C)S(=O)(=O)c1cccc(-c2c(Cl)n(C/C(F)=C/CN)c3ccc(S(C)(=O)=O)cc23)c1 [Compound 100, (Z)-3-(1-(4-amino-2-fluorobut-2-en-1-yl)-2-chloro-5-(methylsulfonyl)-1H-indol-3-yl)-N,N-dimethylbenzenesulfonamide] | > 300 nM | < 300 nM | > 3000 nM | > 3000 nM |
| Cc1cc(-c2c(C)n(C/C(F)=C/CN)c3ccc([N+](=O)[O-])cc23)cc(C)n1 [Compound 101, (Z)-4-(3-(2,6-dimethylpyridin-4-yl)-2-methyl-5-nitro-1H-indol-1-yl)-3-fluorobut-2-en-1-amine] | > 300 nM | < 300 nM | > 3000 nM | > 3000 nM |
| Cc1cc(-c2c(C)n(C/C(F)=C/CN)c3ccc(NS(C)(=O)=O)cc23)cc(C)n1 [Compound 102, (Z)—N-(1-(4-amino-2-fluorobut-2-en-1-yl)-3-(2,6-dimethylpyridin-4-yl)-2-methyl-1H-indol-5-yl)methanesulfonamide Dihydrochloride] | > 300 nM | < 300 nM | > 3000 nM | > 3000 nM |
| COCc1ccc2c(n1)c(-c1cccc(S(=O)(=O)N(C)C)c1)c(C)n2C/C(F)=C/CN [Compound 103, (Z)-3-(1-(4-amino-2-fluorobut-2-en-1-yl)-5-(methoxymethyl)-2-methyl-1H-pyrrolo[3,2-b]pyridin-3-yl)-N,N-dimethylbenzenesulfonamide] | > 300 nM | < 300 nM | > 3000 nM | > 3000 nM |
| Cc1c(-c2cccc(S(=O)(=O)N(C)C)c2)c2cc(NS(C)(=O)=O)ccc2n1C/C(F)=C/CN [Compound 104, (Z)-3-(1-(4-amino-2-fluorobut-2-en-1-yl)-2-methyl-5-(methylsulfonamido)-1H-indol-3-yl)-N,N-dimethylbenzenesulfonamide Hydrochloride] | > 300 nM | < 300 nM | > 3000 nM | > 3000 nM |
| Cc1c(-c2cccc(S(=O)(=O)N(C)C)c2)c2nc(N(C)C)ccc2n1C/C(F)=C/CN [Compound 105, (Z)-3-(1-(4-amino-2-fluorobut-2-en-1-yl)-5-(dimethylamino)-2-methyl-1H-pyrrolo[3,2-b]pyridin-3-yl)-N,N-dimethylbenzenesulfonamide Dihydrochloride] | > 300 nM | < 300 nM | > 3000 nM | > 3000 nM |
| Cc1c(-c2cccc(S(=O)(=O)N(C)C)c2)c2cc(S(=O)(=O)C(C)C)ccc2n1C/C(F)=C/CN [Compound 106, (Z)-3-(1-(4-amino-2-fluorobut-2-en-1-yl)-5-(isopropylsulfonyl)-2-methyl-1H-indol-3-yl)-N,N-dimethyl-benzenesulfonamide Hydrochloride] | > 300 nM | < 300 nM | > 3000 nM | > 3000 nM |
| Cc1ccc2c(n1)c(-c1cccc(S(=O)(=O)N(C)C)c1)c(C)n2C/C(F)=C/CN [Compound 107, (Z)-3-(1-(4-amino-2-fluorobut-2-en-1-yl)-2,5-dimethyl-1H-pyrrolo[3,2-b]pyridin-3-yl)-N,N-dimethylbenzenesulfonamide Dihydrochloride] | > 300 nM | < 300 nM | > 3000 nM | > 3000 nM |
| Cc1c(-c2cccc(S(=O)(=O)N(C)C)c2)c2ncc(F)cc2n1C/C(F)=C/CN [Compound 108, (Z)-3-(1-(4-amino-2-fluorobut-2-en-1-yl)-6-fluoro-2-methyl-1H-pyrrolo[3,2-b]pyridin-3-yl)-N,N-dimethylbenzenesulfonamide] | > 300 nM | < 300 nM | > 3000 nM | > 3000 nM |
| Cc1c(-c2cccc(S(=O)(=O)N(C)C)c2)c2nc(F)ccc2n1C/C(F)=C/CN [Compound 109, (Z)-3-(1-(4-amino-2-fluorobut-2-en-1-yl)-5-fluoro-2-methyl-1H-pyrrolo[3,2-b]pyridin-3-yl)-N,N-dimethylbenzenesulfonamide] | > 300 nM | < 300 nM | > 3000 nM | > 3000 nM |
| Cc1c(-c2cccc(S(=O)(=O)N(C)C)c2)c2nc(C(F)(F)F)ccc2n1C/C(F)=C/CN [Compound 110, (Z)-3-(1-(4-amino-2-fluorobut-2-en-1-yl)-2-methyl-5-(trifluoromethyl)-1H-pyrrolo[3,2-b]pyridin-3-yl)-N,N-dimethylbenzenesulfonamide] | > 300 nM | < 300 nM | > 3000 nM | > 3000 nM |
